From PubChem BioAssay (NCI) come the findings set out here.

“And” between values parts separate entries of the source, which are not always exact repeats. Equal entries are not always repeated.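 Each compound was tested at five concentrations against cells in 96-well plates for 48 hours. GI50 marks 50% less growth. Definition used: TGI = concentration required for complete inhibition of growth.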

The first experiment relates to M14 melanoma. Kind of experiment: NCI tumour cell line growth inhibition, 48 h.
For `COc1ccc2c(c1)N(CCO)C1=C(C(=O)OC1)C2c1cccc(F)c1` (stereo not drawn), the GI50 is 285 nM and the TGI is more than 50 µM.

For `C=CC(=O)Nc1cccc(Oc2nc(Nc3ccc(N4CCN(C)CC4)cc3)nc3ccsc23)c1`, the GI50 is 1870 nM and 2010 nM; the TGI was 3.75 µM and 3.8 µM.

`COC1C=COC2(C)Oc3c(C)c(O)c4c(c3C2=O)/C(=N/C2CCC(O)OC2C)C=C(NC(=O)/C(C)=C\C(=O)C2CC2C(O)C(C)C(O)C(C)C(OC(C)=O)C1C)C4=O` (stereo not drawn) displayed a TGI of 4.47 µM.

For the compound `CC(=O)/C=C/c1cn(C(=O)OC(C)(C)C)c2ccc(Br)cc12`, the GI50 was 30100 nM and the TGI is more than 100 µM.

As for `CCOc1ccccc1C(=O)N1CCN(c2cc(Cl)cc(Cl)c2)CC1`, the GI50 is 29.3 nM and the TGI worked out at 1.72 µM.

In the case of `O=C1c2c(c3c4ccccc4[nH]c3c3ccc4ccccc4c23)C(=O)N1CCN1CCNCC1`, the GI50 was 1670 nM and the TGI was 3.24 µM.

Regarding `COc1cc2c(cc1C1COc3cc4occc4cc3C1=O)OCO2` (stereo not drawn), the TGI was more than 100 µM.

For the compound `Cc1cc(S(=O)(=O)/N=C(/N)Nc2ccccc2O)c(SCc2ccccc2)cc1Cl`, the GI50 was 15300 nM and the TGI is 32.3 µM.

`Cc1c(/C=N/N=C/c2[nH]c(C(=O)OC(C)(C)C)c(C)c2C)[nH]c(C(=O)OC(C)(C)C)c1C`: the TGI is more than 100 µM.

A further experiment concerns A498 renal. Kind of experiment: NCI tumour cell line growth inhibition, 48 h.
Regarding `N#Cc1c(N2CCOCC2)nc(=S)[nH]c1-c1ccco1`, the GI50 was 1.19 µM and the TGI came out at 7.23 µM.

With `C[C@@H]1CN(Cc2ccc(F)cc2)[C@@H](C)CN1C(=O)c1cc2c(C(=O)C(=O)N(C)C)cn(C)c2cc1Cl`, the GI50 is 9.9 µM and the TGI is 43.8 µM.

On to `COc1ccccc1-c1cc(=O)c2cc(C)cnc2[nH]1`, for which the TGI was found to be 79.2 µM.

As for `O=[N+]([O-])c1ccc(C=Cc2ccccc2)cc1.[C-]#[O+].[C-]#[O+].[C-]#[O+].[Cr]`, the GI50 was 7.53 µM and the TGI is more than 100 µM.

In the case of `OCC1OC(n2cnc3c(N/N=C\c4ccccn4)ncnc32)C(O)C1O` (stereo not drawn), the GI50 is 0.762 µM and the TGI is more than 100 µM.

On to `CC(=O)Nc1ccc(SC#N)c2c(NC(C)=O)cccc12`, for which the TGI is more than 100 µM.

With `COc1cc2c(cc1OCCCn1c(-c3ccccn3)nc3ccccc31)N=C[C@@H]1CCCN1C2=O`, the GI50 was 3.96 µM and the TGI turned out to be 14.5 µM.

In the case of `c1cnn2ncc(-c3ccnc(NCCCN4CCOCC4)n3)c2c1`, the GI50 is 4.18 µM and the TGI was 12.2 µM.

In the case of `COc1ccc2c(c1)N(CCO)C1=C(C(=O)OC1)C2c1cccc(F)c1` (stereo not drawn), the GI50 was 0.157 µM and the TGI amounted to 2.12 µM.

Take `C=CC(=O)Nc1cccc(Oc2nc(Nc3ccc(N4CCN(C)CC4)cc3)nc3ccsc23)c1`: the GI50 is 3.51 µM and 0.862 µM; the TGI is > 10 µM and 9.65 µM.

In turn, `COC1C=COC2(C)Oc3c(C)c(O)c4c(c3C2=O)/C(=N/C2CCC(O)OC2C)C=C(NC(=O)/C(C)=C\C(=O)C2CC2C(O)C(C)C(O)C(C)C(OC(C)=O)C1C)C4=O` (stereo not drawn) returned a TGI of 8.36 µM.

On to `CC(=O)/C=C/c1cn(C(=O)OC(C)(C)C)c2ccc(Br)cc12`, for which the GI50 was 20.1 µM and the TGI came to 39.7 µM.

Regarding `CCOc1ccccc1C(=O)N1CCN(c2cc(Cl)cc(Cl)c2)CC1`, the GI50 is 0.0288 µM and the TGI turned out to be 4.36 µM.

Turning to `O=C1c2c(c3c4ccccc4[nH]c3c3ccc4ccccc4c23)C(=O)N1CCN1CCNCC1`, the GI50 was 4.19 µM and the TGI was 19.6 µM.

On to `COc1cc2c(cc1C1COc3cc4occc4cc3C1=O)OCO2` (stereo not drawn), for which the TGI was more than 100 µM.

With `Cc1cc(S(=O)(=O)/N=C(/N)Nc2ccccc2O)c(SCc2ccccc2)cc1Cl`, the GI50 was 21.2 µM and the TGI is 39.1 µM.

For `Cc1c(/C=N/N=C/c2[nH]c(C(=O)OC(C)(C)C)c(C)c2C)[nH]c(C(=O)OC(C)(C)C)c1C`, the TGI was more than 100 µM.

The next experiment has as its system EKVX NSCLC. Kind of experiment: NCI tumour cell line growth inhibition, 48 h.
For `N#Cc1c(N2CCOCC2)nc(=S)[nH]c1-c1ccco1`, the GI50 is 5990 nM and the TGI worked out at 78.7 µM.

As to `C[C@@H]1CN(Cc2ccc(F)cc2)[C@@H](C)CN1C(=O)c1cc2c(C(=O)C(=O)N(C)C)cn(C)c2cc1Cl`, the GI50 was 20700 nM and the TGI worked out at 89.8 µM.

`COc1ccccc1-c1cc(=O)c2cc(C)cnc2[nH]1` registered a TGI of more than 100 µM.

Regarding `O=[N+]([O-])c1ccc(C=Cc2ccccc2)cc1.[C-]#[O+].[C-]#[O+].[C-]#[O+].[Cr]`, the GI50 is 2930 nM and the TGI came out at 30 µM.

As for `OCC1OC(n2cnc3c(N/N=C\c4ccccn4)ncnc32)C(O)C1O` (stereo not drawn), the GI50 is 490 nM and the TGI was determined as 97 µM.

`CC(=O)Nc1ccc(SC#N)c2c(NC(C)=O)cccc12` came in with a TGI of more than 100 µM.

Regarding `COc1cc2c(cc1OCCCn1c(-c3ccccn3)nc3ccccc31)N=C[C@@H]1CCCN1C2=O`, the GI50 was 5000 nM and the TGI is 40.2 µM.

Consider `c1cnn2ncc(-c3ccnc(NCCCN4CCOCC4)n3)c2c1`, for which the GI50 was 6670 nM and the TGI is more than 25 µM.

Take `COc1ccc2c(c1)N(CCO)C1=C(C(=O)OC1)C2c1cccc(F)c1` (stereo not drawn): the GI50 was 1340 nM and the TGI is more than 50 µM.

In the case of `C=CC(=O)Nc1cccc(Oc2nc(Nc3ccc(N4CCN(C)CC4)cc3)nc3ccsc23)c1`, the GI50 was 1550 nM and 2390 nM; the TGI is > 10 µM and 16.7 µM.

`COC1C=COC2(C)Oc3c(C)c(O)c4c(c3C2=O)/C(=N/C2CCC(O)OC2C)C=C(NC(=O)/C(C)=C\C(=O)C2CC2C(O)C(C)C(O)C(C)C(OC(C)=O)C1C)C4=O` (stereo not drawn): the TGI stood at 8.75 µM.

`CC(=O)/C=C/c1cn(C(=O)OC(C)(C)C)c2ccc(Br)cc12`: the GI50 was 24500 nM and the TGI was determined as 84.3 µM.

Consider `CCOc1ccccc1C(=O)N1CCN(c2cc(Cl)cc(Cl)c2)CC1`, for which the GI50 was 58.7 nM and the TGI stood at 17.3 µM.

With `O=C1c2c(c3c4ccccc4[nH]c3c3ccc4ccccc4c23)C(=O)N1CCN1CCNCC1`, the GI50 is 1590 nM and the TGI was determined as 3.15 µM.

Take `COc1cc2c(cc1C1COc3cc4occc4cc3C1=O)OCO2` (stereo not drawn): the TGI is more than 100 µM.

For `Cc1cc(S(=O)(=O)/N=C(/N)Nc2ccccc2O)c(SCc2ccccc2)cc1Cl`, the GI50 was 11000 nM and the TGI is 37.8 µM.

For `Cc1c(/C=N/N=C/c2[nH]c(C(=O)OC(C)(C)C)c(C)c2C)[nH]c(C(=O)OC(C)(C)C)c1C`, the TGI is more than 100 µM.
